Laboratory results published in patent US12565475B2, “Small molecule compound inhibiting signal transmission path of TLR7 and TLR9 and use thereof” (AJOU UNIVERSITY INDUSTRY-ACADEMIC COOPERATION FOUNDATION, priority 2019, dated 2026).

What was measured:
[1] = molecular target: T1, TLR2/6 (Mus musculus, UniProt Q9EPW9+Q9QUN7); assay: TLR2/6-mediated TNF-α secretion (FSL-1), ELISA; format: cell-based, murine; conditions: RAW 264.7, 10 or 20 μM
T1 construct: endogenous in cells; host or cells: RAW 264.7
Method: (§1) Agonists specific to TLR1/TLR2 (Pam3CSK4), TLR2/TLR6 (FSL-1), TLR3 (Poly I:C), TLR7 (imiquimod), and TLR8 (TL8-506) were purchased from InvivoGen Ltd. (Hong-Kong, China), and a TLR4-specific agonist (LPS from E. coli O111:B4) was purchased from Sigma-Aldrich, Inc. For TLR9-specific stimulation, class C CpG-ODN (ODN2395, 5′-TCGTCGTTTTCGGCGCGCGCCG-3′) having full phosphorothioate backbone modification was synthesized (Bioneer, Inc., Daejeon, Korea). All TLR agonists were dissolved in deionized water and applied to a culture media for TLR activation. The cells were treated with test compounds or a control medium for 1 hour, and then stimulated with a TLR agonist for 4 hours, or 24 hours in the case of poly(I:C), and the cytokine secretion was monitored.
RAW 264.7 or differentiated THP-1 cell lines were seeded onto a 96-well culture plate at a density of 2×10^4 cells/well. The cells were treated with test compounds for 1 hour followed by the stimulation with TLR agonists for 4 hours. The supernatant was transferred to pre-coated assay plates, and the secretion levels of mouse and human TNF-α were measured by respective ELISA kits (Invitrogen, Carlsbad, CA, USA). […] Absorbance was measured by a microplate reader spectrophotometer (Molecular Devices, Inc., San Jose, CA, USA), and data was interpolated from a standard curve using SoftMax Pro 5.3 software (Molecular Devices, Inc.). […]

[2] = molecular target: T2, TLR8 (Homo sapiens, UniProt Q9NR97); assay: TLR8-mediated TNF-α secretion (TL8-506) in PMA-differentiated THP-1 cells, ELISA; format: cell-based; conditions: differentiated THP-1, 10 or 20 μM
T2 construct: treated with TIC10-7 for 1 hour, and then treated with TL8-506 as a TLR8 agonist for 4 hours; endogenous in cells; host or cells: THP-1 differentiated with PMA
T2 sequence (Q9NR97 27-1041): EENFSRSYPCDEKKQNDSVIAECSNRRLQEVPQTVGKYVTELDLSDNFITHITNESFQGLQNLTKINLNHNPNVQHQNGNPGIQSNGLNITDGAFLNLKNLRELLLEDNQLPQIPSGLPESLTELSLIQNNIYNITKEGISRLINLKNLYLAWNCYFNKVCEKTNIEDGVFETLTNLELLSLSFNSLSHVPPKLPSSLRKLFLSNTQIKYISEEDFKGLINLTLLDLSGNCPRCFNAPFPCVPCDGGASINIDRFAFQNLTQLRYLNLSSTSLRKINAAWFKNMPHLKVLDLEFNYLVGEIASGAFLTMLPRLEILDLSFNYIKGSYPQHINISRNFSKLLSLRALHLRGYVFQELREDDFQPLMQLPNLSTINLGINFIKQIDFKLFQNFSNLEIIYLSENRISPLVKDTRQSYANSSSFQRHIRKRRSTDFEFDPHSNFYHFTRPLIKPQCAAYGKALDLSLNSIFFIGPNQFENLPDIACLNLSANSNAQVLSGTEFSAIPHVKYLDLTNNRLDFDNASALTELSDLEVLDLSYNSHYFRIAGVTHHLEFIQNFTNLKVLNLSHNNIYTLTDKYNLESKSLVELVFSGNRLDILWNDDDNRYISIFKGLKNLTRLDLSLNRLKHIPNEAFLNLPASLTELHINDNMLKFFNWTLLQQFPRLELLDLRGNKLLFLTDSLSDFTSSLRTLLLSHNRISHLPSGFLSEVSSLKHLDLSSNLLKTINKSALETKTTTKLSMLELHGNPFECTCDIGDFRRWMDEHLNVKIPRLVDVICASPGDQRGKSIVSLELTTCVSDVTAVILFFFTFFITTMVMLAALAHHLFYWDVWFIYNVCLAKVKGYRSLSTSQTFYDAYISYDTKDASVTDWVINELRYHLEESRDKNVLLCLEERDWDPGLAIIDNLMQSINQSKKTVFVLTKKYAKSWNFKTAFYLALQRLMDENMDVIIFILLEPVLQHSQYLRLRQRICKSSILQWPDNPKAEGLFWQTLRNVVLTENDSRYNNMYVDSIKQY
Method: A murine macrophage cell line (RAW 264.7) was obtained from the Korean Cell Line Bank (KCLB) and the Korean Cell Line Research Foundation (KCLRF). The cells were cultured in DMEM (Dulbecco's modified Eagle's medium; HyClone Laboratories, Inc., San Angelo, Texas, USA) supplemented with 1% penicillin/streptomycin (HyClone Laboratories, Inc.) antibiotic mixture and 10% fetal bovine serum (FBS; Thermo Fisher Scientific, Inc., Waltham, MA, USA). A human monocytic cell line (THP-1) was provided by Dr. Chang-Hee Suh, Ajou University School of Medicine, Suwon, Korea. […]
as §1, with “All TLR agonists were dissolved in deionized water and applied to a culture media for TLR activation.” left out, “monitored. […]” for “monitored.”

T1 sequence (Q9QUN7 25-784): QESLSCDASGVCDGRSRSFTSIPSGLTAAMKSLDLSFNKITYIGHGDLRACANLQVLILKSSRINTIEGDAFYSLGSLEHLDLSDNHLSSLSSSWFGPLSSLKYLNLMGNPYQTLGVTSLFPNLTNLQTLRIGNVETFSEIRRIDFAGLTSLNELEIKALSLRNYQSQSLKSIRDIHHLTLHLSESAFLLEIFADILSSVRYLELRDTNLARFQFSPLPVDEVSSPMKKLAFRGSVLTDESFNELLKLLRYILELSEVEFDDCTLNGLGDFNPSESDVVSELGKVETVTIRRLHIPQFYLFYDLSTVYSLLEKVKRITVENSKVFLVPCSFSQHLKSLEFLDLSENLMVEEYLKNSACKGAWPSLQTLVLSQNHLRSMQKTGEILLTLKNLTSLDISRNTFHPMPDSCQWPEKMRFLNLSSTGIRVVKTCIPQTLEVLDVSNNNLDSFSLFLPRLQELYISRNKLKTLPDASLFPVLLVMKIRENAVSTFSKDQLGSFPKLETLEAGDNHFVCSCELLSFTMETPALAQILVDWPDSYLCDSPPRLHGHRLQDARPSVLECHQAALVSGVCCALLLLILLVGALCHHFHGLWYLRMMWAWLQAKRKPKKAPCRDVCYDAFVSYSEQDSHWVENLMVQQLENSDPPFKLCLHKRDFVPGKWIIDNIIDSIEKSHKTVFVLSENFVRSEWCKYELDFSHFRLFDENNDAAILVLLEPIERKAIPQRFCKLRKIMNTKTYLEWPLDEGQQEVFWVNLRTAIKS
T1 sequence (Q9EPW9 28-795): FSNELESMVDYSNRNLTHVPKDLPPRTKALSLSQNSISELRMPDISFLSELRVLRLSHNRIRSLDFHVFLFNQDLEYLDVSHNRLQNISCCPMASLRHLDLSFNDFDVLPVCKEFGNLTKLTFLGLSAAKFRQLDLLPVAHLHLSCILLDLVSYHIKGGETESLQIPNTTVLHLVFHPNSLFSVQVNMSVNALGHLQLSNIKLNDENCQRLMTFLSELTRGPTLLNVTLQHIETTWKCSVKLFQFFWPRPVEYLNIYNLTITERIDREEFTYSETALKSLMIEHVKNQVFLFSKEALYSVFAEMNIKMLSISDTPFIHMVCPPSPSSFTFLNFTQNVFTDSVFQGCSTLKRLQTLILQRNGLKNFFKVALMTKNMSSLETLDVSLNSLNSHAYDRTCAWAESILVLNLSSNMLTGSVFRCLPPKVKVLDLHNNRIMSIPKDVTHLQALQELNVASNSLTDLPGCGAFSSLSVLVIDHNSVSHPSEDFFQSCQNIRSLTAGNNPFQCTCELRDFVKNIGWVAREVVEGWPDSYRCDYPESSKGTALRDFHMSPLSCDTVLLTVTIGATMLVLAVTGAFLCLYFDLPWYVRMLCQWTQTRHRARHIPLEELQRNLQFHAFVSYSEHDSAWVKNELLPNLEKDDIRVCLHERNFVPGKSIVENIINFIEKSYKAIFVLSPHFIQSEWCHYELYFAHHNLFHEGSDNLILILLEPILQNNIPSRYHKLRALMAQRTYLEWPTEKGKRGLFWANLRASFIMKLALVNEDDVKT

effect on TLR2/6-mediated cytokine (TNF-α) production [1]: no effect
TLR8-mediated TNF-α secretion [2]: least affected
Structure (SMILES): COc1ccc(CNc2ncc(-c3ccc4c(c3)OCO4)n2C)c(OC)c1 [TIC10-7, 5-(2H-1,3-benzodioxol-5-yl)-N-[(2,4-dimethoxyphenyl)methyl]-1-methyl-1H-imidazol-2-amine]
